Test results published in patent publication US9827198B2, “Pharmaceutical dosage forms comprising sodium-1-[6-(morpholin-4-yl)pyrimidin-4-yl]-4-(1H-1,2,3-triazol-1-yl)-1H-pyrazol-5-olate” (Bayer Pharma Aktiengesellschaft, priority 2013, dated 2017).
Where a name gives a salt, the structure may show the parent alone.

Legend:
Format in all cases: physicochemical
[1] = Solubility of active ingredient salts in water
[2] = Stability with respect to uptake or release of water under varying atmospheric humidity; details: varying conditions of atmospheric humidity; compared with compound of the formula (II)
[3] = Effect of light on active ingredient (I) or tablet cores; details: active ingredient (I) or the tablet cores
[4] = Compatibility with polyethylene glycol used in the film coating; details: at high active ingredient concentrations

Solubility in water at 25° C. [1]	solubility ([1]; 25° C.)	Effect of light [3]	Structure (SMILES)	Stability with respect to uptake or release of water [2]	Compatibility with polyethylene glycol used in the film coating [4]
6 mg/100 mL	–	–	[Al+3].[O-]c1c(-n2ccnn2)cnn1-c1cc(N2CCOCC2)ncn1.[O-]c1c(-n2ccnn2)cnn1-c1cc(N2CCOCC2)ncn1.[O-]c1c(-n2ccnn2)cnn1-c1cc(N2CCOCC2)ncn1 [Aluminium salt]	–	–
–	26.2 mg/mL	brown discolouration	Oc1c(-n2ccnn2)cnn1-c1cc(N2CCOCC2)ncn1 [Sodium salt (active ingredient (I)), sodium 1-[6-(morpholin-4-yl)pyrimidin-4-yl]-4-(1H-1,2,3-triazol-1-yl)-1H-pyrazol-5-olate]	significantly higher stability with respect to uptake or release of water	physical incompatibility with polyethylene glycol
